Experimental data as given in patent US20260098030A1, “NEGATIVE ALLOSTERIC MODULATORS OF METABOTROPIC GLUTAMATE RECEPTOR 2” (Vanderbilt University, priority 2022, published 2026).

The molecules below were run against T1, rat mGlu2 (Rattus norvegicus, UniProt P31421) (assay: mGlu GIRK cell-based thallium flux assay, rat mGlu2). Details: HEK-293 cells co-expressing rat mGlu2 and GIRK, EC80 glutamate.
T1 construct: expressed in transfected cells; host or cells: HEK-293 cells stably co-expressing GIRK channels
T1 sequence (P31421 19-872): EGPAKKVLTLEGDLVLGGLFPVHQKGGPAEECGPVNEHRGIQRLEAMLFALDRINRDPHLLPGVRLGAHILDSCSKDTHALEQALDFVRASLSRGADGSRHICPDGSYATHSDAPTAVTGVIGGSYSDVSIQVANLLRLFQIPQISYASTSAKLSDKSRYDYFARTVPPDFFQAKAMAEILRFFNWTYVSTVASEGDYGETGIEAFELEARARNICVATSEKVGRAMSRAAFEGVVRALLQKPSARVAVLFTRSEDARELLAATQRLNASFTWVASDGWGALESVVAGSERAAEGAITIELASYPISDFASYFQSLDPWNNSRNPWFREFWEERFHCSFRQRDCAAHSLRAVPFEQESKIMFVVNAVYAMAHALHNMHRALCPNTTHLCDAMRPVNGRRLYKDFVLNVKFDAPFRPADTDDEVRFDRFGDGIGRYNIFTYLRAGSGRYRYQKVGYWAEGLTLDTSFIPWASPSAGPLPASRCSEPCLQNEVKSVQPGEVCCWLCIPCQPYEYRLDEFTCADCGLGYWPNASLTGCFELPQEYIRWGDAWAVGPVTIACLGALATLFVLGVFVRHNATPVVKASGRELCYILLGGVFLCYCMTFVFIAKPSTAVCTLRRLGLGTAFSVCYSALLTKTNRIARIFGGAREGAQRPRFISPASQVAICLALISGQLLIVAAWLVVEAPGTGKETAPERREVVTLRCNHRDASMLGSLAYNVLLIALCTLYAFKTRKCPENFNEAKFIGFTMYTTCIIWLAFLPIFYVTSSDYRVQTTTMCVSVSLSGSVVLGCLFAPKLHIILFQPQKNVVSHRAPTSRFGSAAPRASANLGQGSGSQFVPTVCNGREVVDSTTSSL
Procedure: Human embryonic kidney (HEK-293) cell lines stably co-expressing human or rat mGlu2 and G protein-coupled inwardly rectifying potassium (GIRK) channels, or human mGlu3 and GIRK, were used for in vitro evaluation of compound activity in thallium flux assay using a fluorescent thallium indicator dye.
The day before the assay, GIRK cells co-expressing human mGlu3, human or rat mGlu2, as described above, were plated in black-walled, clear-bottomed, amine-coated 384-well plates at a density of 15,000 cells/20 μL/well in the assay medium (glutamine-depleted basal DMEM supplemented with 10% dialyzed FBS, 20 mM HEPES, 1 mM sodium pyruvate). Cells were incubated at 37° C. in the presence of 5% CO2. The next day, assay buffer (Hanks balanced salt solution, 20 mM HEPES, 4.16 mM sodium bicarbonate, pH 7.2) was prepared to dilute compounds and Thallos AM fluorescent dye solution. The 2× Thallos dye solution (final concentration 0.34 μM to the cells) was prepared by mixing the dye stock (2.97 mM in DMSO) to 1:1 with 10% pluronic acid before adding to the assay buffer. Cells were washed with assay buffer using a microplate washer to remove the medium, resulting in 20 μL of buffer remaining in each well. Immediately, 20 μL of 2× Thallos dye solution was added to cells, and incubated for one hour at 25° C. During the cell dye loading incubation period, a 10-point concentration serial dilution of compound was created from a 10 mM DMSO compound stock by performing a 1:3 serial dilution in DMSO using the Bravo liquid handler. The 2× compound plate was generated by transferring 0.24 μL of the diluted compound in each well to a daughter plate using an Echo acoustic liquid handler. This is further diluted in 40 μL assay buffer, resulting in a range from 30 μM to 1.5 nM final concentration in the assay. The agonist plate (5×) was prepared to include EC80 glutamate concentration (a concentration to elicit 80% of a maximally effective glutamate concentration) in thallium buffer (125 mM […], 1 mM magnesium sulfate, 1.8 mM calcium sulfate, 5 mM glucose, 10 mM HEPES, pH 7.2, 12.5 mM thallium sulfate).
After dye-loading, cell plates were washed with assay buffer to remove excess extracellular dye using a microplate washer, resulting in 20 μL of buffer remaining in each well. After a ten-minute equilibration period, cell, compound and agonist plates were loaded into a Hamamatsu μCell kinetic imaging plate reader equipped with liquid handler to monitor fluorescence changes at 480 nm excitation and 540 nm emission settings. Briefly, after collection of baseline fluorescence, 20 μL of compound was added and incubated for two minutes and twenty seconds. This is immediately followed by adding 10 μL of glutamate-thallium buffer to the wells containing compound. The fluorescent signal was monitored an additional 2.5 minutes after the glutamate addition. Multiple reference wells containing no compound received either no glutamate (for a baseline reference), EC80 glutamate, or ECmax glutamate (for normalization to maximum response). Fluorescence was measured throughout the experiment at a frequency of 1 measurement per every 2 seconds before the glutamate addition and a frequency of 1 measurement per every 1 second after the glutamate addition. Each compound concentration series occurred one time in each plate, and replicates from two or three plates were used in each experimental run. Thallium solutions were handled and disposed of according to guidelines from the Vanderbilt University Chemical Safety department.
Data were normalized using a static ratio function (F/F0) by dividing every fluorescent measurement by the initial fluorescent value for the corresponding well. The increase in signal resulting from the glutamate/thallium addition of the second add was measured by determining the slope from 3 seconds to 13 seconds after the addition. […]

Point of comparison: `Cc1ccc(-c2cc3c(cc2-c2ccc(F)cc2)C(=O)NC3)c(C)n1` [Compound 29, 5-(2,6-dimethylpyridin-3-yl)-6-(4-fluorophenyl)isoindolin-1-one], IC50 3.6 µM. Against it:
- Cc1ccc(-c2cc3c(cc2-c2ccc(F)cc2)C(=O)NC3)cn1 [Compound 6, 6-(4-fluorophenyl)-5-(6-methylpyridin-3-yl)isoindolin-1-one] — within 1.5-fold, 2.46 µM
- Cc1nc2cc(-c3cc4c(cc3-c3ccc(F)cc3)C(=O)NC4)ccc2[nH]1 [Compound 10, 6-(4-fluorophenyl)-5-(2-methyl-1H-benzo[d]imidazol-5-yl)isoindolin-1-one] — higher, > 10 µM
- O=C1NCc2cc(-c3ccc4ncsc4c3)c(-c3ccc(F)cc3)cc21 [Compound 11, 5-(benzo[d]thiazol-6-yl)-6-(4-fluorophenyl)isoindolin-1-one] — higher, > 10 µM
- O=C1NCc2cc(-c3ccc4ocnc4c3)c(-c3ccc(F)cc3)cc21 [Compound 12, 5-(benzo[d]oxazol-5-yl)-6-(4-fluorophenyl)isoindolin-1-one] — 38-fold lower, 0.094 µM
- O=C1NCc2cc(-c3ccc4scnc4c3)c(-c3ccc(F)cc3)cc21 [Compound 13, 5-(benzo[d]thiazol-5-yl)-6-(4-fluorophenyl)isoindolin-1-one] — 22-fold lower, 0.161 µM
- O=C1NCc2cc(-c3ccc4cnccc4c3)c(-c3ccc(F)cc3)cc21 [Compound 14, 6-(4-fluorophenyl)-5-(isoquinolin-6-yl)isoindolin-1-one] — 1.6-fold lower, 2.25 µM
- O=C1NCc2cc(-c3ccc4ccncc4c3)c(-c3ccc(F)cc3)cc21 [Compound 15, 6-(4-fluorophenyl)-5-(isoquinolin-7-yl)isoindolin-1-one] — within 1.5-fold, 4.06 µM
- Cn1cc2cc(-c3cc4c(cc3-c3ccc(F)cc3)C(=O)NC4)cnc2n1 [Compound 16, 6-(4-fluorophenyl)-5-(2-methyl-2H-pyrazolo[3,4-b]pyridin-5-yl)isoindolin-1-one] — higher, > 10 µM
- Cn1cc2cccc(-c3cc4c(cc3-c3ccc(F)cc3)C(=O)NC4)c2n1 [Compound 17, 6-(4-fluorophenyl)-5-(2-methyl-2H-indazol-7-yl)isoindolin-1-one] — 2.9-fold lower, 1.24 µM
- O=C1NCc2cc(-c3ccc4cccnc4c3)c(-c3ccc(F)cc3)cc21 [Compound 18, 6-(4-fluorophenyl)-5-(quinolin-7-yl)isoindolin-1-one] — within 1.5-fold, 4.33 µM
- O=C1NCc2cc(-c3ccc4ncccc4c3)c(-c3ccc(F)cc3)cc21 [Compound 19, 6-(4-fluorophenyl)-5-(quinolin-6-yl)isoindolin-1-one] — within 1.5-fold, 4.31 µM
- O=C1NCc2cc(-c3ccc4nccn4c3)c(-c3ccc(F)cc3)cc21 [Compound 20, 6-(4-fluorophenyl)-5-(imidazo[1,2-a]pyridin-6-yl)isoindolin-1-one] — 2.3-fold higher, 8.31 µM
- O=C1NCc2cc(-c3cc(F)c4ncccc4c3F)c(-c3ccc(F)cc3)cc21 [Compound 21, 5-(5,8-difluoroquinolin-6-yl)-6-(4-fluorophenyl)isoindolin-1-one] — within 1.5-fold, 3.81 µM
- O=C1NCc2cc(-c3ccc4scnc4c3)c(-c3ccc(F)cc3F)cc21 [Compound 23, 5-(benzo[d]thiazol-5-yl)-6-(2,4-difluorophenyl)isoindolin-1-one] — 1.7-fold lower, 2.15 µM
- Cn1cc2ccc(-c3cc4c(cc3-c3ccc(F)cc3F)C(=O)NC4)cc2n1 [Compound 25, 6-(2,4-difluorophenyl)-5-(2-methyl-2H-indazol-6-yl)isoindolin-1-one] — 1.5-fold lower, 2.35 µM
- O=C1NCc2cc(-c3ccc(C4CC4)nc3)c(-c3ccc(F)cc3)cc21 [Compound 26, 5-(6-cyclopropylpyridin-3-yl)-6-(4-fluorophenyl)isoindolin-1-one] — higher, > 10 µM
- O=C1NCc2cc(-c3ccc(C(F)(F)F)nc3)c(-c3ccc(F)cc3)cc21 [Compound 27, 6-(4-fluorophenyl)-5-(6-(trifluoromethyl)pyridin-3-yl)isoindolin-1-one] — higher, > 10 µM
- Cn1cc2c(-c3cc4c(cc3-c3ccc(F)cc3)C(=O)NC4)cccc2n1 [Compound 28, 6-(4-fluorophenyl)-5-(2-methyl-2H-indazol-4-yl)isoindolin-1-one] — 1.9-fold lower, 1.93 µM
- Cc1nc(F)ccc1-c1cc2c(cc1-c1ccc(F)cc1)C(=O)NC2 [Compound 30, 5-(6-fluoro-2-methylpyridin-3-yl)-6-(4-fluorophenyl)isoindolin-1-one] — higher, > 10 µM
- O=C1NCc2cc(-c3ccc(F)nc3F)c(-c3ccc(F)cc3)cc21 [Compound 32, 5-(2,6-difluoropyridin-3-yl)-6-(4-fluorophenyl)isoindolin-1-one] — higher, > 10 µM
- N#Cc1ccc(-c2cc3c(cc2-c2ccc(F)cc2)C(=O)NC3)cn1 [Compound 33, 5-(6-(4-fluorophenyl)-1-oxoisoindolin-5-yl)picolinonitrile] — higher, > 10 µM
- CN(C)c1ccc(-c2cc3c(cc2-c2ccc(F)cc2)C(=O)NC3)cn1 [Compound 34, 5-(6-(dimethylamino)pyridin-3-yl)-6-(4-fluorophenyl)isoindolin-1-one] — higher, > 10 µM
- Cn1ccc(-c2cc3c(cc2-c2ccc(F)cc2)C(=O)NC3)n1 [Compound 35, 6-(4-fluorophenyl)-5-(1-methyl-1H-pyrazol-3-yl)isoindolin-1-one] — 3.5-fold lower, 1.03 µM
- CC(=O)Nc1ccc(-c2cc3c(cc2-c2ccc(F)cc2)C(=O)NC3)cn1 [Compound 36, N-(5-(6-(4-fluorophenyl)-1-oxoisoindolin-5-yl)pyridin-2-yl)acetamide] — higher, > 10 µM
- Cc1cc(F)ncc1-c1cc2c(cc1-c1ccc(F)cc1)C(=O)NC2 [Compound 37, 5-(6-fluoro-4-methylpyridin-3-yl)-6-(4-fluorophenyl)isoindolin-1-one] — higher, > 10 µM
- O=C1NCc2cc(-c3cnc4[nH]ccc4c3)c(-c3ccc(F)cc3)cc21 [Compound 38, 6-(4-fluorophenyl)-5-(1H-pyrrolo[2,3-b]pyridin-5-yl)isoindolin-1-one] — 1.8-fold lower, 1.96 µM
- CN(C)c1ncccc1-c1cc2c(cc1-c1ccc(F)cc1)C(=O)NC2 [Compound 39, 5-(2-(dimethylamino)pyridin-3-yl)-6-(4-fluorophenyl)isoindolin-1-one] — higher, > 10 µM
- O=C1NCc2cc(-c3cccnc3F)c(-c3ccc(F)cc3)cc21 [Compound 40, 6-(4-fluorophenyl)-5-(2-fluoropyridin-3-yl)isoindolin-1-one] — higher, > 10 µM
- Cc1ncccc1-c1cc2c(cc1-c1ccc(F)cc1)C(=O)NC2 [Compound 41, 6-(4-fluorophenyl)-5-(2-methylpyridin-3-yl)isoindolin-1-one] — higher, > 10 µM
- CC(C)c1ncccc1-c1cc2c(cc1-c1ccc(F)cc1)C(=O)NC2 [Compound 42, 6-(4-fluorophenyl)-5-(2-isopropylpyridin-3-yl)isoindolin-1-one] — 2.1-fold higher, 7.55 µM
- O=C1NCc2cc(-c3cccnc3C3CC3)c(-c3ccc(F)cc3)cc21 [Compound 43, 5-(2-cyclopropylpyridin-3-yl)-6-(4-fluorophenyl)isoindolin-1-one] — higher, > 10 µM
- O=C1NCc2cc(-c3cccnc3)c(-c3ccc(F)cc3)cc21 [Compound 44, 6-(4-fluorophenyl)-5-(pyridin-3-yl)isoindolin-1-one] — higher, > 10 µM
- O=C1NCc2cc(-c3ccccn3)c(-c3ccc(F)cc3)cc21 [Compound 45, 6-(4-fluorophenyl)-5-(pyridin-2-yl)isoindolin-1-one] — higher, > 10 µM
- Cc1n[nH]c2ccc(-c3cc4c(cc3-c3ccc(F)cc3)C(=O)NC4)cc12 [Compound 47, 6-(4-fluorophenyl)-5-(3-methyl-1H-indazol-5-yl)isoindolin-1-one] — higher, > 10 µM
- Cc1ccncc1-c1cc2c(cc1-c1ccc(F)cc1)C(=O)NC2 [Compound 48, 6-(4-fluorophenyl)-5-(4-methylpyridin-3-yl)isoindolin-1-one] — higher, > 10 µM
- O=C1NCc2cc(-c3ccc4[nH]ccc4c3)c(-c3ccc(F)cc3)cc21 [Compound 49, 6-(4-fluorophenyl)-5-(1H-indol-5-yl)isoindolin-1-one] — higher, > 10 µM
